Assay results reported in US20150176022A1, “HERBICIDE-RESISTANT SUNFLOWER PLANTS, POLYNUCLEOTIDES ENCODING HERBICIDE=RESISTANT ACETO HYDROXY ACID SYNTHASE LARGE SUBUNIT PROTEINS, AND METHODS OF USE” (priority 2013, published 2015).

Tests used:
Assay in all cases: Greenhouse whole-plant imazapir dose response (Example 8)
Assay type in all cases: in vivo, Helianthus annuus
[1] = tested on: sunflower GIM 5-6 (Restorer Line, A122T); settings: GIM5-6, 14 DAT
Procedure: (§1) A greenhouse study was conducted to quantify and contrast the imazapir sensitivity of the mutants A122T and A205V in different genetic backgrounds at the whole plant level in sunflower. Seeds of the different sunflower lines that were used in this study were obtained under field conditions.
(§2) Seeds were sown in Petri dishes and, after germination, plantlets were transplanted to pots of 10 cm of diameter in a potting media consisting of equal parts of vermiculite, soil and sand. Plants were grown in a greenhouse under natural light conditions supplemented with 400 W sodium halide lamps to provide a 16 hrs daylength. Day/night temperatures were 25 and 20° C., respectively. At the V2 stage 10 plants of each genotype were randomly assigned to each treatment consisting of […] imazapir doses (0, 40, 80, 160, 240, 320, 400 and 480 g ai/ha), and a zero-time biomass determination. Experiment was arranged as a randomized block design with a full factorial (sunflower line×treatment) arrangement of treatments and 10 replications.
(§3) On the day of herbicide application ten plants of each genotype were cut at the cotyledonal node and dried at 60° C. for 48 hrs zero-time for dried weight determination. […] Height was determined as the distance between the cotyledonal node and the apex of each plant. For root biomass determination, each plant was taken from the pot and the potting media was washed out from the roots. Above ground biomass data from each line were converted to biomass accumulation after application by subtracting the appropriate average zero-time biomass from each sample. Dry biomass data were converted to percentages of the untreated control plants within each line to allow direct comparisons between groups.

[2] = tested on: sunflower TH6 (Hybrid, A122T); settings: 14 DAT
Procedure: as §1, §2, §3

[3] = tested on: sunflower TH11 (Hybrid, A122T); settings: 14 DAT
Procedure: as §1, §2, §3

[4] = tested on: sunflower IB920 (Manteiner Line, A205V); settings: 14 DAT
Procedure: as §1, §2, §3

[5] = tested on: sunflower TH1 (Hybrid, A205V); settings: 14 DAT
Procedure: as §1, §2, §3

Compound: CC(C)C1(C)N=C(c2ncccc2C(=O)O)NC1=O (stereo not shown) [imazapir, imazapyr]
- biomass accumulation (dry biomass, % of untreated) ([1]; 0.5× (40 g ai/ha)): 100.0%
- plant height (% of untreated) ([1]; 0.5× (40 g ai/ha)): 100.0%
- root dry weight (% of untreated) ([1]; 0.5× (40 g ai/ha)): 100%
- biomass accumulation (dry biomass, % of untreated) ([1]; 1× (80 g ai/ha)): 96.4%
- plant height (% of untreated) ([1]; 1× (80 g ai/ha)): 100.0%
- root dry weight (% of untreated) ([1]; 1× (80 g ai/ha)): 88.0%
- biomass accumulation (dry biomass, % of untreated) ([1]; 2× (160 g ai/ha)): 97.7%
- plant height (% of untreated) ([1]; 2× (160 g ai/ha)): 99.1%
- root dry weight (% of untreated) ([1]; 2× (160 g ai/ha)): 90.0%
- biomass accumulation (dry biomass, % of untreated) ([1]; 3× (240 g ai/ha)): 95.8%
- plant height (% of untreated) ([1]; 3× (240 g ai/ha)): 98.1%
- root dry weight (% of untreated) ([1]; 3× (240 g ai/ha)): 98.0%
- biomass accumulation (dry biomass, % of untreated) ([1]; 4× (320 g ai/ha)): 90.8%
- plant height (% of untreated) ([1]; 4× (320 g ai/ha)): 91.0%
- root dry weight (% of untreated) ([1]; 4× (320 g ai/ha)): 80.0%
- biomass accumulation (dry biomass, % of untreated) ([1]; 5× (400 g ai/ha)): 81.9%
- plant height (% of untreated) ([1]; 5× (400 g ai/ha)): 94.3%
- root dry weight (% of untreated) ([1]; 5× (400 g ai/ha)): 80.0%
- biomass accumulation (dry biomass, % of untreated) ([1]; 6× (480 g ai/ha)): 78.0%
- plant height (% of untreated) ([1]; 6× (480 g ai/ha)): 85.8%
- root dry weight (% of untreated) ([1]; 6× (480 g ai/ha)): 65.8%
- Phytotoxicity Index ([2]; 0.5× (40 g ai/ha)): 0.5
- biomass accumulation (dry biomass, % of untreated) ([2]; 0.5× (40 g ai/ha)): 100%
- plant height (% of untreated) ([2]; 0.5× (40 g ai/ha)): 99.2%
- root dry weight (% of untreated) ([2]; 0.5× (40 g ai/ha)): 100%
- Phytotoxicity Index ([2]; 1× (80 g ai/ha)): 0.5
- biomass accumulation (dry biomass, % of untreated) ([2]; 1× (80 g ai/ha)): 97.2%
- plant height (% of untreated) ([2]; 1× (80 g ai/ha)): 98.6%
- root dry weight (% of untreated) ([2]; 1× (80 g ai/ha)): 98.1%
- Phytotoxicity Index ([2]; 2× (160 g ai/ha)): 0.5
- biomass accumulation (dry biomass, % of untreated) ([2]; 2× (160 g ai/ha)): 97.9%
- plant height (% of untreated) ([2]; 2× (160 g ai/ha)): 100.3%
- root dry weight (% of untreated) ([2]; 2× (160 g ai/ha)): 96.2%
- Phytotoxicity Index ([2]; 3× (240 g ai/ha)): 0.5
- biomass accumulation (dry biomass, % of untreated) ([2]; 3× (240 g ai/ha)): 98.2%
- plant height (% of untreated) ([2]; 3× (240 g ai/ha)): 99.6%
- root dry weight (% of untreated) ([2]; 3× (240 g ai/ha)): 79.3%
- Phytotoxicity Index ([2]; 4× (320 g ai/ha)): 0.5
- biomass accumulation (dry biomass, % of untreated) ([2]; 4× (320 g ai/ha)): 97.8%
- plant height (% of untreated) ([2]; 4× (320 g ai/ha)): 101.0%
- root dry weight (% of untreated) ([2]; 4× (320 g ai/ha)): 78.4%
- Phytotoxicity Index ([2]; 5× (400 g ai/ha)): 0.5
- biomass accumulation (dry biomass, % of untreated) ([2]; 5× (400 g ai/ha)): 85.1%
- plant height (% of untreated) ([2]; 5× (400 g ai/ha)): 87.0%
- root dry weight (% of untreated) ([2]; 5× (400 g ai/ha)): 85.8%
- Phytotoxicity Index ([2]; 6× (480 g ai/ha)): 0.5
- biomass accumulation (dry biomass, % of untreated) ([2]; 6× (480 g ai/ha)): 79.5%
- plant height (% of untreated) ([2]; 6× (480 g ai/ha)): 79.6%
- root dry weight (% of untreated) ([2]; 6× (480 g ai/ha)): 57.3%
- Phytotoxicity Index ([3]; 0.5× (40 g ai/ha)): 0.4
- biomass accumulation (dry biomass, % of untreated) ([3]; 0.5× (40 g ai/ha)): 96.6%
- plant height (% of untreated) ([3]; 0.5× (40 g ai/ha)): 100.4%
- root dry weight (% of untreated) ([3]; 0.5× (40 g ai/ha)): 100%
- Phytotoxicity Index ([3]; 1× (80 g ai/ha)): 0.4
- biomass accumulation (dry biomass, % of untreated) ([3]; 1× (80 g ai/ha)): 93.9%
- plant height (% of untreated) ([3]; 1× (80 g ai/ha)): 99.9%
- root dry weight (% of untreated) ([3]; 1× (80 g ai/ha)): 99.0%
- Phytotoxicity Index ([3]; 2× (160 g ai/ha)): 0.4
- biomass accumulation (dry biomass, % of untreated) ([3]; 2× (160 g ai/ha)): 81.6%
- plant height (% of untreated) ([3]; 2× (160 g ai/ha)): 92.0%
- root dry weight (% of untreated) ([3]; 2× (160 g ai/ha)): 86.1%
- Phytotoxicity Index ([3]; 3× (240 g ai/ha)): 0.5
- biomass accumulation (dry biomass, % of untreated) ([3]; 3× (240 g ai/ha)): 75.8%
- plant height (% of untreated) ([3]; 3× (240 g ai/ha)): 90.5%
- root dry weight (% of untreated) ([3]; 3× (240 g ai/ha)): 81.5%
- Phytotoxicity Index ([3]; 4× (320 g ai/ha)): 1.0
- biomass accumulation (dry biomass, % of untreated) ([3]; 4× (320 g ai/ha)): 75.0%
- plant height (% of untreated) ([3]; 4× (320 g ai/ha)): 90.8%
- root dry weight (% of untreated) ([3]; 4× (320 g ai/ha)): 72.6%
- Phytotoxicity Index ([3]; 5× (400 g ai/ha)): 2.0
- biomass accumulation (dry biomass, % of untreated) ([3]; 5× (400 g ai/ha)): 60.1%
- plant height (% of untreated) ([3]; 5× (400 g ai/ha)): 84.4%
- root dry weight (% of untreated) ([3]; 5× (400 g ai/ha)): 68.9%
- Phytotoxicity Index ([3]; 6× (480 g ai/ha)): 2.5
- biomass accumulation (dry biomass, % of untreated) ([3]; 6× (480 g ai/ha)): 59.6%
- plant height (% of untreated) ([3]; 6× (480 g ai/ha)): 84.4%
- root dry weight (% of untreated) ([3]; 6× (480 g ai/ha)): 45.3%
- biomass accumulation (dry biomass, % of untreated) ([4]; 0.5× (40 g ai/ha)): 93.9%
- plant height (% of untreated) ([4]; 0.5× (40 g ai/ha)): 96.2%
- root dry weight (% of untreated) ([4]; 0.5× (40 g ai/ha)): 94.0%
- biomass accumulation (dry biomass, % of untreated) ([4]; 1× (80 g ai/ha)): 87.9%
- plant height (% of untreated) ([4]; 1× (80 g ai/ha)): 80.0%
- root dry weight (% of untreated) ([4]; 1× (80 g ai/ha)): 89.6%
- biomass accumulation (dry biomass, % of untreated) ([4]; 2× (160 g ai/ha)): 58.8%
- plant height (% of untreated) ([4]; 2× (160 g ai/ha)): 61.5%
- root dry weight (% of untreated) ([4]; 2× (160 g ai/ha)): 50.7%
- biomass accumulation (dry biomass, % of untreated) ([4]; 3× (240 g ai/ha)): 46.4%
- plant height (% of untreated) ([4]; 3× (240 g ai/ha)): 40.9%
- root dry weight (% of untreated) ([4]; 3× (240 g ai/ha)): 37.3%
- biomass accumulation (dry biomass, % of untreated) ([4]; 4× (320 g ai/ha)): 35.5%
- plant height (% of untreated) ([4]; 4× (320 g ai/ha)): 27.9%
- root dry weight (% of untreated) ([4]; 4× (320 g ai/ha)): 32.8%
- plant height (% of untreated) ([4]; 5× (400 g ai/ha)): 30.0%
- root dry weight (% of untreated) ([4]; 5× (400 g ai/ha)): 25.4%
- biomass accumulation (dry biomass, % of untreated) ([4]; 6× (480 g ai/ha)): 29.4%
- root dry weight (% of untreated) ([4]; 6× (480 g ai/ha)): 19.4%
- Phytotoxicity Index ([5]; 0.5× (40 g ai/ha)): 0
- biomass accumulation (dry biomass, % of untreated) ([5]; 0.5× (40 g ai/ha)): 95.0%
- plant height (% of untreated) ([5]; 0.5× (40 g ai/ha)): 99.5%
- root dry weight (% of untreated) ([5]; 0.5× (40 g ai/ha)): 79.4%
- Phytotoxicity Index ([5]; 1× (80 g ai/ha)): 0
- biomass accumulation (dry biomass, % of untreated) ([5]; 1× (80 g ai/ha)): 89.6%
- plant height (% of untreated) ([5]; 1× (80 g ai/ha)): 99.5%
- root dry weight (% of untreated) ([5]; 1× (80 g ai/ha)): 70.7%
- Phytotoxicity Index ([5]; 2× (160 g ai/ha)): 1.8
- biomass accumulation (dry biomass, % of untreated) ([5]; 2× (160 g ai/ha)): 75.5%
- plant height (% of untreated) ([5]; 2× (160 g ai/ha)): 78.6%
- root dry weight (% of untreated) ([5]; 2× (160 g ai/ha)): 69.6%
- Phytotoxicity Index ([5]; 3× (240 g ai/ha)): 6.4
- biomass accumulation (dry biomass, % of untreated) ([5]; 3× (240 g ai/ha)): 60.4%
- plant height (% of untreated) ([5]; 3× (240 g ai/ha)): 48.4%
- root dry weight (% of untreated) ([5]; 3× (240 g ai/ha)): 42.3%
- Phytotoxicity Index ([5]; 4× (320 g ai/ha)): 8.0
- biomass accumulation (dry biomass, % of untreated) ([5]; 4× (320 g ai/ha)): 46.5%
- plant height (% of untreated) ([5]; 4× (320 g ai/ha)): 28.9%
- root dry weight (% of untreated) ([5]; 4× (320 g ai/ha)): 38.6%
- Phytotoxicity Index ([5]; 5× (400 g ai/ha)): 8.9
- biomass accumulation (dry biomass, % of untreated) ([5]; 5× (400 g ai/ha)): 38.9%
- plant height (% of untreated) ([5]; 5× (400 g ai/ha)): 25.3%
- root dry weight (% of untreated) ([5]; 5× (400 g ai/ha)): 34.7%
- Phytotoxicity Index ([5]; 6× (480 g ai/ha)): 9.0
- biomass accumulation (dry biomass, % of untreated) ([5]; 6× (480 g ai/ha)): 33.9%
- plant height (% of untreated) ([5]; 6× (480 g ai/ha)): 27.1%
- root dry weight (% of untreated) ([5]; 6× (480 g ai/ha)): 23.1%
